From patent publication US20220024877A1 (Kansas State University Research Foundation, priority 2018, published 2022)
≈ marks a conversion by molar mass, not a printed value. Read-outs that look alike come from different tables or passages of the source.

Columns and labels:
[1] = Copper(I) binding constant of NNSN compounds (1H-NMR titration with CuBr in D4-methanol); settings: for Copper (I) binding constant: Table I
Description: They were recorded in D4-methanol by means of adding aliquots of a 5 mmol CuBr stock solution in D4-methanol to the 1 mmol NNSN-compound, resulting in 0, 0.5, 1.0, 2.0 and 3.0 mmol CuBr concentration in D4-methanol.

[2] = tested on: Avirulent Mtb strain mc26206 (H37Rv ΔpanCD ΔleuCD, double auxotroph); assay: microbe, parasite or virus in culture; assay type: cell-based; settings: Mycobacterium tuberculosis
[3] = tested on: S. aureus clinical isolate SA3; assay: Zinc-activated activity, MIC with Zn2+ as trigger; settings: Staphylococcus aureus
[4] = log P (octanol/water partition coefficient); assay type: physicochemical
MRSA = assay: In vitro activity against S. aureus (MRSA), MIC with or without Cu supplementation; settings: Staphylococcus aureus, MRSA
Description: S. aureus was inoculated in Mueller-Hinton medium from frozen stocks and grown for 2-4 h (until reaching an OD600˜1) at 37° C. while shaking. Once the OD was reached, bacteria were harvested and diluted in Phenolred-free RPMI1640 medium to an OD of 0.01 (=inoculum). Test compounds where diluted from frozen DMSO-stocks were diluted in Phenolred-free RPMI1640 medium with or without Cu supplementation (100 μM) and serially diluted in 96-well plates in the same medium to achieve a final concentration of between 0.08 and 10 μM after addition of an equal volume of inoculum. Medium-only controls and growth controls in the absence of test compounds were also included. The plates were placed in sealed bags and incubated at 37° C. After 15-20 h incubation time, an OD600 reading was taken and analyzed. […] If kinetic data were required, resazurin was added to each well. Using a plate reader with incubation chamber, resazurin conversion was monitored by fluorescence reading every 20 min for up to 24 h. After normalizing the data to respective controls, the MIC was determined using the same definition as above.

[5] = Therapeutic index (approx.)
S. aureus strain 1471 = assay: Drop assay against S. aureus strain 1471 with or without copper
Description: For the drop assay, bacteria were grown in wells with or without copper, using a 1:2 drug titration starting at 10 μM.

[6] = read-out: MIC* against MRSA (μM), kinetic data (determined from bacteria growth experiments), resulting in IC50 values similar to MIC values

SMILES: Nc1ccn(C(=S)Nc2ccc(Cl)cc2)n1 [APM03, 3-amino-N-(4-chlorophenyl)-1H-pyrazole-1-carbothioamide]
- Copper (I) binding constant [1]: 53225 M⁻¹
- IC50 ([2]; read-out: IC50 +Cu): 300 nM
- IC50 ([2]; read-out: IC50 −Cu): > 12500 nM
- MIC90 ([2]; read-out: MIC90 +Cu): 0.5 µM (≈ 0.126 µg/mL)
- MIC90 ([2]; read-out: MIC90 −Cu): > 25 µM
- MIC [3]: 2.5 µM (≈ 0.632 µg/mL)
- logP [4]: 2.1
- MIC (MRSA; read-out: MIC against the clinical isolate SA3, SA3 resistant to ampicillin, clindamycin, erythromycin, penicillin, and tetracycline): 70 µM (≈ 17.7 µg/mL)
- MIC (MRSA; [6]): 0.07 µM (≈ 0.0177 µg/mL)
- Therapeutic index (approx.) [5]: 2
- MIC (S. aureus strain 1471; Staphylococcus aureus, 1471, read-out: MIC: +50 μM Cu): 1.25 µM (≈ 0.316 µg/mL)
- MIC (S. aureus strain 1471; Staphylococcus aureus, MRSA, read-out: MIC against MRSA (clinical isolate 1471)): 0.6 µM (≈ 0.152 µg/mL)

SMILES: Cc1ccn(C(=S)Nc2ccc(Cl)cc2)n1 [SB17]
- Binding constant ([1]; Cu-NNSN 1:1 stoichiometry): 54020 M⁻¹
- MIC [3]: 5 µM (≈ 1.26 µg/mL)

SMILES: Nc1ccn(C(=S)Nc2ccc([N+](=O)[O-])cc2)n1 [SB27, 3-amino-N-(4-nitrophenyl)-1H-pyrazole-1-carbothioamide]
- Copper (I) binding constant [1]: 10460 M⁻¹
- MIC (MRSA; [6]): 0.3 µM (≈ 0.079 µg/mL)
- Therapeutic index (approx.) [5]: 1
